Data from the supplement of paper PMC12463676, “Small-molecule dissolution of stress granules by redox modulation benefits ALS models” (Nature Chemical Biology, 2025).

Key:
[1] = compound: O=[As]([O-])(O)O.[K+] [potassium arsenate]; test: thermal stability z-score vs DMSO; higher = more thermally stabilized by treatment; settings: HeLa; arsenate concentration 1 mM
Experimental: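 Cellular thermal proteome profiling in HeLa cells treated with 1 mM arsenate for 1 h (DMSO pretreatment), heated to ten temperatures (37-66.3 °C). Soluble protein was quantified by TMT mass spectrometry relative to DMSO controls; the thermal stability score was transformed to a z-score; mean of n = 3 experiments.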

[2] = compound: NC(=O)CCCCC1CCSS1 [lipoamide]; test: as above; settings: HeLa, lipoamide concentration 100 µM
Experimental: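 Cellular thermal proteome profiling in HeLa cells. Cells were treated with 100 µM lipoamide for 1 h, with or without 1 mM arsenate for a further 1 h, then heated to ten temperatures (37-66.3 °C), and soluble protein was quantified by TMT mass spectrometry relative to 0.1% DMSO controls. The thermal stability score (sum of log2 fold changes minus the abundance score) was transformed to a z-score; mean of n = 3 experiments.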

[3] = arsenate co-treatment: 1 mM arsenate 1 h
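Also: each temperature applied for 3 min, abundance score taken as mean log2 fold change at the two lowest temperatures, z-score obtained by mean subtraction and division by SD.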

UniProt Q58FF6, sequence (Q58FF6 whole entry): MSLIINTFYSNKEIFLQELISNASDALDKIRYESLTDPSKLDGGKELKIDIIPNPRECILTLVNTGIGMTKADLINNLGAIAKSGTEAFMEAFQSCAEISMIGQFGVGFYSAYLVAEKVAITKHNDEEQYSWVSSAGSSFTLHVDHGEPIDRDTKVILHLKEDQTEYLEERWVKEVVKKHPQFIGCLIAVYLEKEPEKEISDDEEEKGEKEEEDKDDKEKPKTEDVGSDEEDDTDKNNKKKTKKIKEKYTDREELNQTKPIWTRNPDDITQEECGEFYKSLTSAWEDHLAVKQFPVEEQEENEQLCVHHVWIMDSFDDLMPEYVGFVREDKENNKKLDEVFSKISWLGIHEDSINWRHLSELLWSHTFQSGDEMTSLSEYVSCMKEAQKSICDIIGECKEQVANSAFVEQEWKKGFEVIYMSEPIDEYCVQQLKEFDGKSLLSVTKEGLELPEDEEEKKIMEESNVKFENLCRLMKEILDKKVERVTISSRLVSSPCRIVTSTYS
UniProt Q8NE86, sequence (Q8NE86 whole entry): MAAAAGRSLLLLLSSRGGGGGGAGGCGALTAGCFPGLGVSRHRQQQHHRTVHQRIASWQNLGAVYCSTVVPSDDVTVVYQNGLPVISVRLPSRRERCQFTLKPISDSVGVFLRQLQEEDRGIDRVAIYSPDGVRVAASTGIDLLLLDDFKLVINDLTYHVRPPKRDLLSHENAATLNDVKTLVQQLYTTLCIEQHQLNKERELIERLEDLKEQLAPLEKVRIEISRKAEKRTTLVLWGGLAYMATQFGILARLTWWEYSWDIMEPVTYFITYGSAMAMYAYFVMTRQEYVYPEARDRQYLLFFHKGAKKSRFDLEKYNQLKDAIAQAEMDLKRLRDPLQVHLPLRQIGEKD
UniProt Q8NB49, sequence (Q8NB49 whole entry): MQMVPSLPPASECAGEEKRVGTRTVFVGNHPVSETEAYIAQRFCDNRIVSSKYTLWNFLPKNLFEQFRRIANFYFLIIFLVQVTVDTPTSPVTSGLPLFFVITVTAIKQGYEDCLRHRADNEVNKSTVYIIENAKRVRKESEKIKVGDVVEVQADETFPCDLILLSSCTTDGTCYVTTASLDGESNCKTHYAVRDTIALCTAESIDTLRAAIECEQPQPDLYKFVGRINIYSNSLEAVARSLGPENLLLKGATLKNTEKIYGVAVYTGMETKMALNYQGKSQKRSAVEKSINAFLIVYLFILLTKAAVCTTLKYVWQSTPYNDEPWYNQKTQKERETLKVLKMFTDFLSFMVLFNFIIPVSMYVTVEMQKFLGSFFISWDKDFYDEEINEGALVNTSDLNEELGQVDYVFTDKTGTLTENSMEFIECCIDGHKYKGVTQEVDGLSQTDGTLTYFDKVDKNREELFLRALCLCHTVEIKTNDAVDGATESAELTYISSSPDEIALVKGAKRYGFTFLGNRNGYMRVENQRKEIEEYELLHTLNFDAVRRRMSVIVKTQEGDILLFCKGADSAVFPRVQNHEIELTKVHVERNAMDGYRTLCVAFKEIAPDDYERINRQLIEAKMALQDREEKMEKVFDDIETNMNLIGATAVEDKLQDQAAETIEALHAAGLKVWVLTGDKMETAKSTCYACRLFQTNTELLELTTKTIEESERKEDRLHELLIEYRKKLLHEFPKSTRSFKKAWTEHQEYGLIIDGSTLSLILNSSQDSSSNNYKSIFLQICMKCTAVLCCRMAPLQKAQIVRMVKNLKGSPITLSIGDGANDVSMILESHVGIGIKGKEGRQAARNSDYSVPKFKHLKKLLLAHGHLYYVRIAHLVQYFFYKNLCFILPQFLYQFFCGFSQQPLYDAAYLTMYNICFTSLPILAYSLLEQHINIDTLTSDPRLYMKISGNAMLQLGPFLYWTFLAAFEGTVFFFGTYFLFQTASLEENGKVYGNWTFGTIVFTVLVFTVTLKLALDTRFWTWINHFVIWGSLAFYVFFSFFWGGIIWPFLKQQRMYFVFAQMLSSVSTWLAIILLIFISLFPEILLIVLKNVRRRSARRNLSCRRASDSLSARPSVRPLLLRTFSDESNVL
UniProt Q9H6X2, sequence (Q9H6X2 whole entry): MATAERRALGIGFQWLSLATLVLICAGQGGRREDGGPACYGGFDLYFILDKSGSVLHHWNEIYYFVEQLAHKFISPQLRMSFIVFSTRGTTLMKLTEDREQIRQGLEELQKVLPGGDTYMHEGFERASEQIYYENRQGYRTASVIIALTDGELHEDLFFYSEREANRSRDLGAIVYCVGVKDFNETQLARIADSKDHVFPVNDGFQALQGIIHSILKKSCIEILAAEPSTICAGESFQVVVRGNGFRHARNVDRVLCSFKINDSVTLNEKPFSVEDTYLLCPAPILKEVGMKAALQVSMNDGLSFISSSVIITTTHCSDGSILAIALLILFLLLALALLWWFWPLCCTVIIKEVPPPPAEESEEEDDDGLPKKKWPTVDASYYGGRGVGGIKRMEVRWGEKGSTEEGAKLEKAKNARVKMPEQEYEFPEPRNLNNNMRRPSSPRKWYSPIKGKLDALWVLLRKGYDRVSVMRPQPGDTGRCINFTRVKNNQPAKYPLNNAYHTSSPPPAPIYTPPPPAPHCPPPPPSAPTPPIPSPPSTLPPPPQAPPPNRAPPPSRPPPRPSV
UniProt Q9NRR4, sequence (Q9NRR4 whole entry): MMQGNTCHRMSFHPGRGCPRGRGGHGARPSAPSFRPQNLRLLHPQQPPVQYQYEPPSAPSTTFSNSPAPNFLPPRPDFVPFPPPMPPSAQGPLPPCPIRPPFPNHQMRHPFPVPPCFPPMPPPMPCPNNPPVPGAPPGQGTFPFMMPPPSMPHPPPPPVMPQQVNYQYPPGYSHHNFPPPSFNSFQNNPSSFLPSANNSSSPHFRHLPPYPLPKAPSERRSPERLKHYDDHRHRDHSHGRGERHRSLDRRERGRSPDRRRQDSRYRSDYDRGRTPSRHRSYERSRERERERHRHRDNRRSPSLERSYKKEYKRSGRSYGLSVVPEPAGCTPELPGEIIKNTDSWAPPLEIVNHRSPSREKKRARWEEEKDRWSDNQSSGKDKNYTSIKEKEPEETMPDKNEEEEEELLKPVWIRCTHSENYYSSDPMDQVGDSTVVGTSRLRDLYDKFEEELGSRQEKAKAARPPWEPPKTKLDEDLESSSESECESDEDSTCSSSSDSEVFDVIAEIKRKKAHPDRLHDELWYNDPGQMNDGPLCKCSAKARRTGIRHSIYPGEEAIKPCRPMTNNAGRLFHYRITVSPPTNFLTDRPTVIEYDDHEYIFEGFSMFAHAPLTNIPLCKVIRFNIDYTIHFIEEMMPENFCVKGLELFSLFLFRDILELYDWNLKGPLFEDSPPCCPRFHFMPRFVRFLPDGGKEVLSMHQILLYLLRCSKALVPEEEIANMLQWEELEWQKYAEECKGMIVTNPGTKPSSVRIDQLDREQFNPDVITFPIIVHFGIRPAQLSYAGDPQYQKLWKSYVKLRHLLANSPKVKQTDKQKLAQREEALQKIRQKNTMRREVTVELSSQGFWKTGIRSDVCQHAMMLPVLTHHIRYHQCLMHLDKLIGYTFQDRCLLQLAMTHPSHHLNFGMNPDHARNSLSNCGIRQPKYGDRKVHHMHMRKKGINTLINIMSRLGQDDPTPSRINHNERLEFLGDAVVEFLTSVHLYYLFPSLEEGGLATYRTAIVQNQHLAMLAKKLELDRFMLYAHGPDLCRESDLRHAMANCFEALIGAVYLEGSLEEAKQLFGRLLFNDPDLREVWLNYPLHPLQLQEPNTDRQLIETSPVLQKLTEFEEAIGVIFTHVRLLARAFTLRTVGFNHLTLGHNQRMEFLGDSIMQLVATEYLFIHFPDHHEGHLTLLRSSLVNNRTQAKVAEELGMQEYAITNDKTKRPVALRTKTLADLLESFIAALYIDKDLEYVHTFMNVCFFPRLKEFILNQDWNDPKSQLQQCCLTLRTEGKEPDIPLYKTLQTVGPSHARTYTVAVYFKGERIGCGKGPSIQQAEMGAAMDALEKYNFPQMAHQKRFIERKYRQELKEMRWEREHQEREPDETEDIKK
UniProt P28482, sequence (P28482 whole entry): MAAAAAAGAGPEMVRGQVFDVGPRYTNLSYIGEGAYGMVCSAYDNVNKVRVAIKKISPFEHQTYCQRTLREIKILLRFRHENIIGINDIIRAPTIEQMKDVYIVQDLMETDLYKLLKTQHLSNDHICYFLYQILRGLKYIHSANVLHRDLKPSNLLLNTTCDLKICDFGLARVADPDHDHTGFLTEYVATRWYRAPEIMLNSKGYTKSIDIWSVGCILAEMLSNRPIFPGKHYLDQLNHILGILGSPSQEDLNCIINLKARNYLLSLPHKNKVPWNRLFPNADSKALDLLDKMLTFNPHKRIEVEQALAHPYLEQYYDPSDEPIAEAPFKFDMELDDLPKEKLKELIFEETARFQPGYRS
UniProt Q14165, sequence (Q14165 whole entry): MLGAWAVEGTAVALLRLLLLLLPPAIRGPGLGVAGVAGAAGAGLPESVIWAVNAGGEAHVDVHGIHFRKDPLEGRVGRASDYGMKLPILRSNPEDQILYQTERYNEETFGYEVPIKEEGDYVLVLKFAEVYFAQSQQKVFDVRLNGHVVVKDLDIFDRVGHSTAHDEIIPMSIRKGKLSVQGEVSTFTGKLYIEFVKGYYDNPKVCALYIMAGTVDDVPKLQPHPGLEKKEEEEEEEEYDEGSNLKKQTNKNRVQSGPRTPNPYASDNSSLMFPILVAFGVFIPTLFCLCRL
UniProt O14494, sequence (O14494 whole entry): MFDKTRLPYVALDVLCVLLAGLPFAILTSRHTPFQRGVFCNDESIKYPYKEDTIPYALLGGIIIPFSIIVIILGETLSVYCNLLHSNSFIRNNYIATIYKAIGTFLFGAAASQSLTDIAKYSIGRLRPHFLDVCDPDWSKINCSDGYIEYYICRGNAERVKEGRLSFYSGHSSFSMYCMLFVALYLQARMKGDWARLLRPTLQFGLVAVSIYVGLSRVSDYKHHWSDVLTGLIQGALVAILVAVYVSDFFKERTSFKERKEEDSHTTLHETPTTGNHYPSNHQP
UniProt Q9UII2, sequence (Q9UII2 whole entry): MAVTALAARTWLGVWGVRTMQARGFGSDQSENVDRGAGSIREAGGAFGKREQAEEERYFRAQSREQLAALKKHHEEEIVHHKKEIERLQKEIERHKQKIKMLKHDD

Target	thermal stability z-score [1]	thermal stability z-score [2, 3]	thermal stability z-score ([2]; arsenate co-treatment: none)
RIOK1 (UniProt Q9BRS2)	-1.27	-0.529	-0.513
EAF1 (UniProt Q96JC9)	-0.000349	1.02	0.0799
CPSF3 (UniProt Q9UKF6)	-0.0903	0.15	-0.0907
VPS4A (UniProt Q9UN37)	-0.19	-0.367	-0.472
CETN2 (UniProt P41208)	0.798	0.767	0.569
ARRB2 (UniProt P32121)	0.28	-0.153	-1.1
PDLIM5 (UniProt Q96HC4)	-2.23	-0.252	-0.371
FAM60A (UniProt Q9NP50)	-0.681	0.0806	0.262
ATPIF1 (UniProt Q9UII2)	-0.206	0.646	0.505
AK1 (UniProt P00568)	-0.267	-0.242	0.28
LARS2 (UniProt Q15031)	-0.741	-0.0508	0.0433
NUDT21 (UniProt O43809)	-0.633	1.57	0.0301
S100A13 (UniProt Q99584)	0.67	0.758	1.06
PPP4C (UniProt P60510)	0.166	0.813	0.205
TTC9C (UniProt Q8N5M4)	-0.649	-0.988	-0.401
RAD23A (UniProt P54725)	-0.142	0.0472	0.234
VBP1 (UniProt P61758)	-0.72	-0.615	-0.366
WDR75 (UniProt Q8IWA0)	0.152	0.0395	0.0658
NOL6 (UniProt Q9H6R4)	-0.592	0.328	-0.0357
HSP90B1 (UniProt P14625)	0.54	-3.56	-2.61
BECN1 (UniProt Q14457)	-0.408	-0.39	-0.238
NUP54 (UniProt Q7Z3B4)	0.309	0.342	0.00636
ATP11C (UniProt Q8NB49)	-1.13	-0.348	0.254
UTP20 (UniProt O75691)	-0.134	-0.113	-0.168

Target	thermal stability z-score [1]	thermal stability z-score [2, 3]	thermal stability z-score ([2]; arsenate co-treatment: none)
PSME1 (UniProt Q06323)	0.405	-0.372	-0.217
PHF6 (UniProt Q8IWS0)	-3.52	-0.33	-0.552
MCU (UniProt Q8NE86)	0.57	-0.0937	0.21
ARID1A (UniProt O14497)	-0.205	0.0489	-0.0643
EXOC5 (UniProt O00471)	-0.0647	-0.0743	0.105
MAP4K4 (UniProt O95819)	0.303	-0.599	-0.0959
LENG1 (UniProt Q96BZ8)	0.544	0.493	0.509
MLEC (UniProt Q14165)	0.385	-3.66	-2.94
ARF6 (UniProt P62330)	0.683	0.394	0.237
AKT1S1 (UniProt Q96B36)	-0.504	-0.0956	-0.229
MAPK1 (UniProt P28482)	-0.175	0.246	-0.0239
CORO1B (UniProt Q9BR76)	-0.66	-0.396	-0.129
SEC31A (UniProt O94979)	0.497	0.00351	-0.104
PLPP1 (UniProt O14494)	0.324	-0.53	0.262
PEX13 (UniProt Q92968)	0.284	0.444	0.834
PPM1B (UniProt O75688)	0.179	0.109	0.277
ZNF326 (UniProt Q5BKZ1)	0.0996	-0.0719	0.0989
TPX2 (UniProt Q9ULW0)	0.448	0.967	0.322
USP13 (UniProt Q92995)	-0.0408	0.464	0.0604
WDR55 (UniProt Q9H6Y2)	-1.7	0.00122	-0.679
ARHGEF10 (UniProt O15013)	0.964	-0.746	-0.324
LIG1 (UniProt P18858)	0.24	-0.166	0.00122
ANTXR1 (UniProt Q9H6X2)	0.283	0.0337	-0.146
NR2C2AP (UniProt Q86WQ0)	0.17	-0.149	-0.255

Target	thermal stability z-score [1]	thermal stability z-score [2, 3]	thermal stability z-score ([2]; arsenate co-treatment: none)
HK2 (UniProt P52789)	0.715	-0.636	-0.168
PIGK (UniProt Q92643)	-0.123	-1.32	-1.34
SLC33A1 (UniProt O00400)	0.345	0.69	1.25
NFIC (UniProt P08651)	-0.494	0.26	0.173
ZMAT2 (UniProt Q96NC0)	-1.13	-0.00196	-0.398
NLE1 (UniProt Q9NVX2)	-2.71	0.481	0.2
DROSHA (UniProt Q9NRR4)	0.141	-0.124	-0.127
CSRP2 (UniProt Q16527)	-0.0511	0.688	0.0492
HDGFRP2 (UniProt Q7Z4V5)	0.126	0.576	0.499
AKT2 (UniProt P31751)	-0.0952	0.466	-0.00865
IFNGR1 (UniProt P15260)	-1.27	-0.824	-1.59
EPN1 (UniProt Q9Y6I3)	0.491	0.241	0.408
TNFAIP8 (UniProt O95379)	0.147	0.127	-0.421
PRSS21 (UniProt Q9Y6M0)	1.03	-3	-2.45
UTP18 (UniProt Q9Y5J1)	0.516	0.058	-0.244
RCHY1 (UniProt Q96PM5)	-0.571	-0.131	-0.0834
CNPY3 (UniProt Q9BT09)	-0.0267	-4.03	-4.98
DYNLRB1 (UniProt Q9NP97)	0.237	-0.37	0.743
ENTHD2 (UniProt Q96N21)	-0.479	-0.00439	-0.0659
ZYX (UniProt Q15942)	-0.00636	0.568	0.672
SORCS2 (UniProt Q96PQ0)	-0.319	-0.156	-0.45
DHX8 (UniProt Q14562)	0.449	0.819	0.167
HSP90AB4P (UniProt Q58FF6)	-0.635	0.361	-0.21
